The source of these data is patent publication US20230128137A1, “BENZO FIVE-MEMBERED CYCLIC COMPOUND” (MEDSHINE DISCOVERY INC., priority 2020, published 2023).

The IC50 is the concentration at which inhibition is half-maximal. The term CLint scaled denotes the capacity of the preparation to metabolise the compound, expressed as a volume cleared per time. Broadly, the half-life is the time needed for the level to fall by half in the phase considered. Low readings indicate rapid decline, high ones slow decline. By AUC(0-t) is commonly meant the area under the concentration-time curve up to a stated or last time point. Higher therefore signals more exposure. What is called Cmax is the maximum level reached in the sampled fluid or tissue. As usually defined, the Tmax is the time at which the peak concentration occurs.

Like-named read-outs stand apart in the source and are kept apart here.

For one series, the target named is T1, Bcl-2 (Homo sapiens, UniProt P10415).
T1 construct: Human recombinant Bcl-2 (amino acid 1-207); purchased Reaction Biology Corporation (RBC) APT-11-441; host or cells: E. coli
As to the kind of experiment: HTRF competition test, Bcl-2 with FAM-BAK peptide (enzymology experiment). Format: binding. The note with it: 4 nM Bcl-2 and 100 nM FAM-BAK, read-out: IC50 (nM) for inhibition of Bcl-2 enzyme. The procedure:
This experiment was based on the competition between fluorescently-labeled Bak/Bad/Noxa peptides and GST-labeled Bcl family proteins. The fluorescence detection method based on HTRF was to observe the binding degree by using the fluorescence ratio between Tb-labeled anti-GST and FAM-labeled peptides. This peptide binds to the surface of the Bcl family protein pocket, which is essential for its anti-apoptotic function.
1.1 Experimental reagents: analysis buffer: 20 mM potassium phosphate, pH 7.5, 50 mM sodium chloride, 1 mM EDTA, 0.005% Tritonx-100 and 1% DMSO.
1.2 Probe: 5,6-FAM-peptide
1.4 Experimental Conditions:
4 nM Bcl-2 and 100 nM FAM-BAK
a) The Bcl enzyme reaction solution was prepared in the newly prepared analysis buffer;
b) the Bcl enzyme reaction solution was provided;
c) the compound was first prepared into a 100% dimethyl sulfoxide solution, and then the compound solution was mixed with the Bcl enzyme reaction solution using (Echo550; nanoliter range) technology, and co-incubated for 10 minutes;
d) the FAM peptide solution was added.
e) the mixed solution was gently stirred in dark and room temperature, and co-cultured for 10 minutes.
f) Anti-GST solution was added.
g) The mixed solution was gently stirred in dark and room temperature, and co-cultured for 1 hour.
h) The HTRF high-frequency fluorescence ratio was tested, and the IC50 values were calculated.

The nature of series [1]: Liver microsome metabolic stability in vitro, CD-1 mouse. Format: in vitro ADME. The note with it: CD-1 mouse liver microsomes. As to the method:
3.2 preparation of nicotinamide adenine dinucleotide phosphate cofactor solution: an appropriate amount of NADPH powder was weighed and diluted into 10 mM magnesium chloride solution (working solution concentration: 10 unit/mL; final concentration of reaction system: 1 unit/mL);
3.3 preparation of liver microsomes: an appropriate concentration working solution of liver microsomes (human, SD rat, CD-1 mouse, beagle dog) was prepared in 100 mM potassium phosphate buffer;
3.4 preparation of quenching solution: cold (4° C.) acetonitrile containing 200 ng/mL tolbutamide and 200 ng/mL labetalol as internal standard (IS) was used as quenching solution;
3.5 experimental operation:
a. empty “incubation” plates T60 and NCF60 were preheated for 10 minutes;
b. the liver microsomes were diluted to 0.56 mg/mL with 100 mM phosphate buffer;
c. 445 μL of microsomal working solution (0.56 mg/mL) was transferred to the preheated “incubation” plates T60 and NCF60, and then the“incubation” plates T60 and NCF60 were preincubated for 10 min with continuous shaking at 37° C. 54 μL of liver microsomes were transferred to a blank plate, and 6 μL of NAPDH cofactor was added to the blank plate, and then 180 μL of quenching solution was added thereto;
e. for NCF60 plate, 50 μL of buffer was added thereto and the mixture was fully mixed for three times. Timing was started; the plate was shaken at 37° C. for 60 minutes;
f. in “quenching” plate TO, 180 μL of quenching solution and 6 μL of NAPDH cofactor were addded to make sure that the plate was cooled down to prevent evaporation;
g. for T60 plates, the mixture was fully mixed for three times, and 54 μL of mixture was immediately transferred to the “quenching” plate at the 0 min time point. 44 μL of NAPDH cofactor was then added to the culture plate (T60). Timing was started; the plate was shaken at 37° C. for 60 minutes;
h. at 5, 10, 20, 30 and 60 min, 180 μL of quenching solution was added to the “quenching” plate, and the mixture was mixed for one time, and 60 μL of sample was continuously transferred from the T60 plate to the “quenching” plate at each time point;
i. for NCF60: the mixture was mixed for one time, and 60 μL of sample was transferred from the NCF60 culture dish to the “quenching” plate containing quenching solution at 60 minutes time point;
j. all sampling plates were shaked for 10 minutes, then centrifuged at 4000 rpm for 20 minutes at 4° C.;
k. 60 μL of supernatant was transferred into 180 μL of HPLC water and stirred with a plate shaker for 10 min;
1. before LC-MS/MS analysis, each bioanalysis plate was sealed and shaked for 10 minutes.
For orientation: Liver microsomes are a subcellular fraction often used to study metabolism.

The nature of series [2]: In vivo pharmacokinetic property evaluation in CD-1 mice (IV and PO). The note with it: mouse, plasma; for MRT last: read-out: MRT0-last. The procedure:
The in vivo pharmacokinetic properties of compound 2 were evaluated in CD-1 mice by intravenous administration and oral administration. IV (intravenous injection) refers to slow administration in jugular vein, and PO (oral administration) refers to administration by gavage. Formulations for intravenous and gavage administration were both 2.5% dimethylsulfoxide, 5% ethanol, 10% cremophor EL, 20% glucose solution (concentration of 5%), 62.5% water. PK time points in the intravenous injection group were 5 min, 15 min, 30 min, 1 h, 2 h, 4 h, 8 h, 12 h and 24 h after administration, respectively, and PK time points in the gastric administration group were 15 min, 30 min, 1 h, 2 h, 4 h, 8 h and 24 h after administration, respectively. Approximately 0.03 mL of blood was collected at each time point. Blood from each sample was transferred to a plastic microcentrifuge tube containing EDTA-K2, centrifuged at 4000 rpm for 5 min in a 4° C. centrifuge, and plasma was collected within 15 min, and the plasma samples were stored in polypropylene tubes. Before the test, samples were stored in a refrigerator at −75±15° C. The concentration of compounds in plasma samples was analyzed using the LCMS/MS method and the following pharmacokinetic parameters were calculated using WinNonlin software (Phoenix™, version 6.1): IV: C0, Cl, Vd, T1/2, AUC0-last, MRT0-last, regression points; PO: Cmax, Tmax, T1/2, AUC0-last, MRT0-last, regression points. Pharmacokinetic data were described using descriptive statistics, such as mean, standard deviation.

T1 sequence (P10415 1-207): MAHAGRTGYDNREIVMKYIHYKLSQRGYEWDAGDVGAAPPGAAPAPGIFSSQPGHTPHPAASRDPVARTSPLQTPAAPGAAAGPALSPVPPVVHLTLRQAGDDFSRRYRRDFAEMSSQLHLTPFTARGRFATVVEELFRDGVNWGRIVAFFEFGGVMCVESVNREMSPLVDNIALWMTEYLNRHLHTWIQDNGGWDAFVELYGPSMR

For the compound `CC1(C)CCC(CN2CCN(c3ccc(C(=O)NS(=O)(=O)c4cc([N+](=O)[O-])c(NCC5CCOCC5)c5[nH]cnc45)c(Oc4cnc5[nH]ccc5c4)c3)CC2)=C(c2ccc(Cl)cc2)C1` [Compound 2], at Bcl-2, the IC50 worked out at 1.5 nM. Further, in series [1], the CLint scaled at 1 µM was 79.7 mL/min/kg and the half-life at 1 µM was found to be 1.15 h. Also, the “Remaining (T = 60 min)” value in series [1] (60 min incubation) was 54.6%. In series [2] (1 mg/kg, IV, 1 mpk), the AUC(0-t) was determined as 1.8 µM·h, the C0 is 11.7 µM, the clearance amounted to 10.2 mL/min/kg and the half-life was 3.35 h. Besides, the MRT last in series [2] (1 mg/kg, IV, 1 mpk) was 1.21 h. Moreover, the Vd in series [2] (1 mg/kg, IV, 1 mpk, read-out: Vdss) was 0.834 L/kg. In addition, in series [2] (50 mg/kg, PO, 50 mpk), the AUC(0-t) was 12.8 µM·h, the Cmax is 1.79 µM, the Tmax stood at 3 h and the half-life was 4.1 h. Also, in series [2] (50 mg/kg, PO, 50 mpk), the MRT last worked out at 6.22 h.
